Test results taken from US20020090380A1, “Novel formulation comprising thymol useful in the treatment of drug resistant bacterial infections” (priority 2000, published 2002).
Where two headings read alike, the source gives them in different places.

Experiments:
Type in all cases: cell-based
[1] = tested on: nalidixic acid resistant mutants of Escherichia coli; test: microbe, parasite or virus in culture; settings: Escherichia coli; for zone of inhibition at 250 µg/disc: 250 μg/disc; for zone of inhibition at 100 µg/disc: 100 μg/disc; for zone of inhibition at 50 µg/disc: 50 μg/disc
[2] = tested on: lomefloxacin resistant mutants of Escherichia coli; test: microbe, parasite or virus in culture
[3] = tested on: Mycobacterium smegmatis wild type strain MC^2; test: microbe, parasite or virus in culture; settings: Mycolicibacterium smegmatis
[4] = tested on: lomefloxacin resistant mutants of Mycobacterium smegmatis; test: microbe, parasite or virus in culture; settings: Mycolicibacterium smegmatis; for zone of inhibition at 100 µg/disc: 100 μg/disc
[5] = tested on: E. coli CAO3; test: microbe, parasite or virus in culture; settings: Escherichia coli, CAO3, read-out: inhibition zones
[6] = tested on: E. coli CAO3 (revert); test: microbe, parasite or virus in culture; settings: Escherichia coli, read-out: inhibition zones
[7] = tested on: Ethidium bromide resistant strain of Mycobacterium smegmetis; test: microbe, parasite or virus in culture; settings: read-out: Activity of thymol (zone)
[8] = tested on: Escherchia coli strain CA8000; test: organism not typed; settings: for zone of inhibition at 50 µg/disc: 50 μg/disc; for zone of inhibition at 100 µg/disc: 100 μg/disc
From the text: Activity of the Compound of the Present Invention Thymol at Different pH in Escherchia coli Strain CA8000
The above table clearly indicate that the activity of the present compound is maximum at neutral pH (7.00).

[9] = tested on: E. coli cells; test: microbe, parasite or virus in culture; settings: Escherichia coli
[10] = tested on: E. coli cells; test: Disk diffusion assay, synergistic effect of thymol with Mentha hybrid oil; settings: Escherichia coli; thymol 50 μg/disc
[11] = tested on: multidrug resistant bacteria
[12] = read-out: inhibition zones, CAN 122
[13] = read-out: inhibition zones, CAN 123
[14] = read-out: inhibition zones, CAN 124
[15] = read-out: inhibition zones, CAN 125
[16] = read-out: inhibition zones, CAN 126

Cc1ccc(C(C)C)c(O)c1 [Thymol]
1 mm: zone of inhibition at 50 µg/disc [1, 13] | zone of inhibition at 50 µg/disc [1, 14] | zone of inhibition at 50 µg/disc [1, 15] | zone of inhibition at 50 µg/disc [1, 16] | zone of inhibition at 50 µg/disc ([2]; read-out: inhibition zones, CAL 104, 50 μg/disc) | zone of inhibition at 50 µg/disc ([3]; read-out: inhibition zones) | zone of inhibition at 100 µg/disc ([4]; read-out: inhibition zones, MSL 101) | zone of inhibition at 100 µg/disc ([4]; read-out: inhibition zones, MSL 102) | zone of inhibition at 100 µg/disc ([4]; read-out: inhibition zones, MSL 103) | zone of inhibition at 100 µg/disc ([4]; read-out: inhibition zones, MSL 104) | zone of inhibition at 100 µg/disc ([4]; read-out: inhibition zones, MSL 105) | zone of inhibition at 100 µg/disc ([4]; read-out: inhibition zones, MSL 107) | zone of inhibition at 100 µg/disc ([4]; read-out: inhibition zones, MSL 108) | zone of inhibition at 100 µg/disc ([4]; read-out: inhibition zones, MSL 109) | zone of inhibition at 100 µg/disc ([4]; read-out: inhibition zones, MSL 110) | zone of inhibition at 100 µg/disc ([4]; read-out: inhibition zones, MSL 111) | zone of inhibition at 100 µg/disc ([4]; read-out: inhibition zones, MSL 112) | zone of inhibition at 25 µg/disc ([8]; 25 μg/disc, pH 7.00) | zone of inhibition at 50 µg/disc ([8]; 1M NaOH) | zone of inhibition at 50 µg/disc ([8]; pH 9.00)
6 mm: zone of inhibition at 100 µg/disc ([8]; pH 7.00) | zone of inhibition at 100 µg/disc ([9]; thymol 100.0 μg/disc)
2.5 mm: zone of inhibition at 150000 µg/mL ([4]; read-out: inhibition zones, MSL 109, 150 mg/ml)
45%: increase of the antibacterial activity of thymol [11]
3 mm: zone of inhibition at 100 µg/disc [1, 13] | zone of inhibition at 100 µg/disc [1, 14] | zone of inhibition at 100 µg/disc [1, 15] | zone of inhibition at 100 µg/disc ([2]; read-out: inhibition zones, CAL 103, 100 μg/disc) | zone of inhibition at 150000 µg/mL ([3]; read-out: inhibition zones) | zone of inhibition at 100 µg/disc ([8]; pH 9.00) | zone of inhibition at 50 µg/disc ([9]; thymol 50.0 μg/disc) | zone of inhibition at 50 µg/disc [10]
1.5 mm: zone of inhibition at 100 µg/disc ([2]; read-out: inhibition zones, CAL 104, 100 μg/disc)
trace: inhibition zone ([8]; 25 μg/disc, pH 4.00)
4 mm: zone of inhibition at 100 µg/disc ([2]; read-out: inhibition zones, CAL 101, 100 μg/disc) | zone of inhibition at 100 µg/disc ([2]; read-out: inhibition zones, CAL 105, 100 μg/disc) | zone of inhibition at 100 µg/disc ([2]; read-out: inhibition zones, CAL 106, 100 μg/disc) | zone of inhibition at 100 µg/disc ([2]; read-out: inhibition zones, CAL 107, 100 μg/disc) | zone of inhibition at 250 µg/disc ([3]; read-out: inhibition zones) | zone of inhibition at 100 µg/disc ([8]; pH 4.00)
2 mm: zone of inhibition at 100 µg/disc [1, 12] | zone of inhibition at 100 µg/disc [1, 16] | zone of inhibition at 50 µg/disc ([2]; read-out: inhibition zones, CAL 101, 50 μg/disc) | zone of inhibition at 50 µg/disc ([2]; read-out: inhibition zones, CAL 103, 50 μg/disc) | zone of inhibition at 50 µg/disc ([2]; read-out: inhibition zones, CAL 105, 50 μg/disc) | zone of inhibition at 50 µg/disc ([2]; read-out: inhibition zones, CAL 106, 50 μg/disc) | zone of inhibition at 50 µg/disc ([2]; read-out: inhibition zones, CAL 107, 50 μg/disc) | zone of inhibition at 100 µg/disc ([3]; read-out: inhibition zones) | zone of inhibition at 100 µg/disc [5] | zone of inhibition at 50 µg/disc ([8]; pH 4.00) | zone of inhibition at 50 µg/disc ([8]; pH 7.00) | zone of inhibition at 100 µg/disc ([8]; 1M NaOH) | zone of inhibition at 25 µg/disc ([9]; thymol 25.0 μg/disc)
8 mm: zone of inhibition at 100 µg/disc ([3]; read-out: Activity of thymol (zone)) | zone of inhibition at 100 µg/disc [6]
5 mm: zone of inhibition at 250 µg/disc ([1]; read-out: inhibition zones, CAN 121) | zone of inhibition at 250 µg/disc [1, 12] | zone of inhibition at 250 µg/disc [1, 13] | zone of inhibition at 250 µg/disc [1, 14] | zone of inhibition at 250 µg/disc [1, 15] | zone of inhibition at 250 µg/disc [1, 16] | zone of inhibition at 100 µg/disc ([2]; read-out: inhibition zones, CAL 102, 100 μg/disc) | zone of inhibition at 100 µg/disc ([2]; read-out: inhibition zones, CAL 108, 100 μg/disc) | zone of inhibition at 75 µg/disc ([9]; thymol 75.0 μg/disc)
< 0.5 mm: zone of inhibition at 100 µg/disc ([4]; read-out: inhibition zones, MSL 106) | zone of inhibition at 12.5 µg/disc ([9]; thymol 12.5 μg/disc)
11 mm: zone of inhibition at 100 µg/disc [7]
